Values quoted from earlier work as cited in patent publication US7816544B2, “Synthesis of rocaglamide natural products via photochemical generation of oxidopyrylium species” (Trustees of Boston University, priority 2004, dated 2010).

Columns and labels:
[1] = system: NF-κB; settings: different mouse and human T cell lines; B. Baumann et al., J. Biol. Chem., 2002
[2] = system: human cancer cells; settings: compared with Taxol; B. Y. Hwang et al., J. Org. Chem., 2004

| SMILES | inhibition of NF-κB activity / NF-κB-induced gene activation [1] | cytotoxic activity against human cancer cells [2] |
| --- | --- | --- |
| COc1ccc([C@@]23Oc4cc(OC)cc(OC)c4[C@]2(O)[C@H](O)[C@H](C(=O)N(C)C)[C@H]3c2ccccc2)cc1 [Rocaglamide] | among the strongest inhibitors of NF-κB-induced gene activation known so far | – |
| COC(=O)[C@H]1[C@@H](O)[C@@]2(O)c3c(OC)cc(O[C@@H]4O[C@@H]([C@H](O)CO)CO[C@H]4OC)cc3O[C@@]2(c2ccc(OC)cc2)[C@@H]1c1ccccc1 [silvestrol 2, silvestrol] | – | comparable to the anticancer drug Taxol |
